Test results: US9133521B2, “Composition for diagnosing Alzheimer's disease using methylation status of HMOX1 gene and method for diagnosing Alzheimer's disease using the same” (Ewha University—Industry Collaboration Foundation, priority 2012, dated 2015)

Tested on: HMOX1 expression in H4 cell line
Assay: HMOX1 gene expression by qRT-PCR in H4 cell line treated with 5-aza-2′-deoxycytidine
Format: cell-based, human
Settings: normal H4 cell line, 10 μM for 3 days, normalized to GAPDH
Method: Human neuroglioblastoma cell line, H4 was cultured in a Dulbecco's modified Eagle medium containing 10% fetal bovine serum, 100 U/mL penicillin, 100 μg/mL streptomycin and 2 mM L-glutamine, and APP695-Swedish mutant (K595N/M596L)-expressing Alzheimer's disease model cell line, H4-sw was cultured in the H4 culture medium supplemented with 500 μg/mL geneticine.
Total RNAs were extracted from the cell line and the brain tissues using an RNeasy mini kit (Qiagen). The extraction method was performed according to the manufacturer's manual. The extracted total RNAs were quantified using a spectrophotometer, and RNA degradation was examined by electrophoresis in a 1% agarose gel.
For cDNA synthesis, Superscript II reverse transcriptase (Invitrogen) was used. 1 μg of total RNA and 50 ng of oligo dT were denatured at 70° C. for 10 minutes, and then a reaction mixture of 4 μA of 5×RT buffer, 2 μA of […], 4 μA of 2.5 mM dNTP mixture, 200 units of Superscript II reverse transcriptase, 10 units of RNase inhibitor was added thereto. 20 μA of the reaction mixture was reacted at 25° C. for 10 minutes, at 42° C. for 50 minutes, and at 95° C. for 5 minutes for cDNA synthesis. The product was diluted at 1:4, and 2 μA thereof was used as a template of qRT-PCR. […]

Nc1ncn([C@H]2C[C@H](O)[C@@H](CO)O2)c(=O)n1 [5-aza-2′-deoxycytidine]
HMOX1 expression: increased
